{"source": "patent US11564924B2", "about": "“Pharmaceutical composition formed by combining pyridoxamine compound and thiamine compound” (RENASCIENCE CO., LTD., priority 2014, dated 2023)", "key": {"[1]": {"system": "pentosidine", "test": "Plasma pentosidine concentration in schizophrenia patients (HPLC)", "assay_type": "in vivo, human", "settings": "Day 169 vs Day 1; nine subjects", "text": "Drug administration was initiated for nine subjects from whom consent was obtained. The observation period was defined as the period from the day on which consent was obtained (Day −14) to the day 2 weeks after the day of consent (Day 0), and the initial day of drug administration was defined as Day 1. The data of Day 1 is data immediately before the start of administration of the pyridoxamine compound. The drug administration period was defined as the 24-week period from the start of drug administration (Day 1 to Day 169). […]\nIn the morning […], on the initial day of drug administration (Day 1), and on Day 15, Day 29, Day 85, and Day 169 after the start of drug administration, blood was drawn from the nine subjects above before administration of the drug. […] The plasma pentosidine concentration was measured according to the method described below. […]\nThe samples prepared as described above were diluted 10-fold with Milli-Q water (diluted samples). […] The diluted samples and the diluted pentosidine standard were subjected to HPLC (HPLC apparatus produced by Shimadzu Science) under the following conditions, and analysis of pentosidine was performed with a fluorescence measuring device (SLC-10Avp; equipped with UV and fluorescence detectors). […]"}, "[2]": {"test": "Serum pyridoxamine and pyridoxal concentrations in schizophrenia patients during drug administration", "assay_type": "in vivo, human", "description": "Measurement of the serum pyridoxamine concentration, the serum pyridoxal concentration, and the serum pyridoxine concentration was outsourced to SRL Inc. or Mitsubishi Chemical Medience Corporation (now LSI Medience Corporation).\nPyridoxamine dihydrochloride was orally administered as a pyridoxamine compound to schizophrenia patients daily, three times a day (morning, noon, and before bedtime) in an amount of 400 mg or 600 mg each time (daily dose of pyridoxamine: about 830 mg or 1250 mg) according to the protocols shown in FIG. 2 (described as “PM dose (mg/one time)” in FIG. 2)."}}}
{"smiles": "Cc1ncc(CO)c(CN)c1O.Cl.Cl", "note": "[pyridoxamine dihydrochloride]", "values": [{"measurement": "blood pentosidine concentration at the end of administration versus Day 1", "setting": "[1]", "result": "lower than that on Day 1 in at least seven subjects"}, {"measurement": "serum pyridoxamine concentration, times higher than at the start of drug administration", "setting": "[2]; patient ID No. 3, 4 weeks after the start of drug administration", "result": "about 7700 times"}, {"measurement": "serum pyridoxamine concentration, times higher than at the start of drug administration", "setting": "[2]; patient ID No. 6, 8 weeks after the start of drug administration", "result": "about 2100 times"}]}
